Experimental data as given in patent US20260138990A1, “TRICYCLIC FUSED IMIDAZOLE COMPOUNDS AS CD38 MODULATORS AND USES THEREOF” (AEOVIAN PHARMACEUTICALS, INC., priority 2023, published 2026).

Experiments:
human CD38 = target: T1, human CD38 (Homo sapiens, UniProt P28907); assay: NAD+ cyclase activity assay with human recombinant CD38 protein (ε-NAD fluorescence); format: biochemical; conditions: 1.9 nM human CD38, substrate ε-NAD, 30 min preincubation, fluorescence 300/410 nm
T1 construct: purchased Bio-Techne GmbH AVI2404
T1 sequence (P28907 1-300): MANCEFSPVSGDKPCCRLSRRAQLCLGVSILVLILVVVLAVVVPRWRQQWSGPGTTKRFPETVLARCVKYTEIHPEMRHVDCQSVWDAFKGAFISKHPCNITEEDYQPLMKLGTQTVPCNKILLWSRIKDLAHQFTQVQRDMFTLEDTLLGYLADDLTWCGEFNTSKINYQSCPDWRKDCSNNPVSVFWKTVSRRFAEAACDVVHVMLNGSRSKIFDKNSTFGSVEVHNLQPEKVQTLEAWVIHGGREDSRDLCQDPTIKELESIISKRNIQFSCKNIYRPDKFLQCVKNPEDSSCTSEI
Outline: (§1)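 Twelve-point threefold compound dilutions were given 30 min at room temperature with 0.6 nM mouse or 1.9 nM human CD38 before […] ε-NAD was added (pH 7.5 HEPES/sucrose/Tween buffer). The rate came from the linear-phase slope of ex 300/em 410 nm fluorescence against vehicle and no-CD38 controls.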

mouse CD38 = target: T2, mouse CD38 (Mus musculus, UniProt P56528); assay: NAD+ cyclase activity assay with mouse recombinant CD38 protein (ε-NAD fluorescence); format: biochemical; conditions: 0.6 nM mouse CD38, substrate ε-NAD, 30 min preincubation, fluorescence 300/410 nm
T2 construct: purchased Bio-Techne GmbH 4947-AC
T2 sequence (P56528 1-304): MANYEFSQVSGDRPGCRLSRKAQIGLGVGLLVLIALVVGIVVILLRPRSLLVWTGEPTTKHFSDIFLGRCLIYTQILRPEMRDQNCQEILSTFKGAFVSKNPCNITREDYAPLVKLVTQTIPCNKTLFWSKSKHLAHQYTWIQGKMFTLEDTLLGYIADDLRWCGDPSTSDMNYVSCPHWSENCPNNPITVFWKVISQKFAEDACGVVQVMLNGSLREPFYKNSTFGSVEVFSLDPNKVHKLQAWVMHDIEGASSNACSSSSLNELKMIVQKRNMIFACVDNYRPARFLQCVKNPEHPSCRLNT
Outline: as §1

| Structure (SMILES) | IC50 (human CD38) [µM] | IC50 (mouse CD38) [µM] |
| --- | --- | --- |
| CC(=O)N[C@H]1CC[C@H](NC(=O)c2ccc3c(c2)-c2cncn2CCO3)CC1 [Compound 60A, N-((1r,4r)-4-Acetamidocyclohexyl)-5,6-dihydrobenzo[f]imidazo[1,5-d][1,4]oxazepine-10-carboxamide] | 0.1 to 1 | 0.001 to 0.01 |
| O=C(N[C@H]1CC[C@H](C(=O)NCC(F)(F)F)CC1)c1ccc2c(c1)-c1cncn1CCO2 [Compound 61A, N-((1r,4r)-4-((2,2,2-Trifluoroethyl)carbamoyl)cyclohexyl)-5,6-dihydrobenzo[f]imidazo[1,5-d][1,4]oxazepine-10-carboxamide] | < 0.03 | < 0.001 |
| O=C(N[C@H]1CC[C@H](NCC(F)(F)F)CC1)c1ccc2c(c1)-c1cncn1CCO2 [Compound 62A, N-((1r,4r)-4-((2,2,2-Trifluoroethyl)amino)cyclohexyl)-5,6-dihydrobenzo[f]imidazo[1,5-d][1,4]oxazepine-10-carboxamide] | < 0.03 | 0.001 to 0.01 |
| O=C(N[C@H]1CC[C@H](NCC(F)F)CC1)c1ccc2c(c1)-c1cncn1CCO2 [Compound 63A, N-((1r,4r)-4-((2,2-Difluoroethyl)amino)cyclohexyl)-5,6-dihydrobenzo[f]imidazo[1,5-d][1,4]oxazepine-10-carboxamide] | < 0.03 | 0.001 to 0.01 |
| O=C(N[C@H]1CC[C@@H](N2CC(F)(F)C2)CC1)c1ccc2c(c1)-c1cncn1CCO2 [Compound 64A, N-((1s,4s)-4-(3,3-Difluoroazetidin-1-yl)cyclohexyl)-5,6-dihydrobenzo[f]imidazo[1,5-d][1,4]oxazepine-10-carboxamide] | 0.1 to 1 | 0.01 to 0.1 |
| O=C(N[C@H]1CC[C@H](CO)CC1)c1ccc2c(c1)-c1cncn1CCO2 [Compound 65A, N-((1r,4r)-4-(Hydroxymethyl)cyclohexyl)-5,6-dihydrobenzo[f]imidazo[1,5-d][1,4]oxazepine-10-carboxamide] | < 0.03 | < 0.001 |
| O=C(NC1CCC(F)(F)C1)c1ccc2c(c1)-c1cncn1CCO2 (stereo not drawn) [Compound 66A, N-(3,3-Difluorocyclopentyl)-5,6-dihydrobenzo[f]imidazo[1,5-d][1,4]oxazepine-10-carboxamide] | < 0.03 | < 0.001 |
| COCCC(=O)N[C@H]1CC[C@H](NC(=O)c2ccc3c(c2)-c2cncn2CCO3)CC1 [Compound 67A, N-((1r,4r)-4-(3-Methoxypropanamido)cyclohexyl)-5,6-dihydrobenzo[f]imidazo[1,5-d][1,4]oxazepine-10-carboxamide] | 0.1 to 1 | 0.001 to 0.01 |
| CC1COc2ccc(C(=O)N[C@@H]3CCCOC3)cc2-c2cncn21 (stereo partly drawn) [Compound 68A, 5-Methyl-N—((R)-tetrahydro-2H-pyran-3-yl)-5,6-dihydrobenzo[f]imidazo[1,5-d][1,4]oxazepine-10-carboxamide] | 0.1 to 1 | 0.01 to 0.1 |
| O=C(N[C@H]1CC[C@@H](N2CCC(F)(F)C2)CC1)c1ccc2c(c1)-c1cncn1CCO2 [Compound 69A, N-((1s,4s)-4-(3,3-Difluoropyrrolidin-1-yl)cyclohexyl)-5,6-dihydrobenzo[f]imidazo[1,5-d][1,4]oxazepine-10-carboxamide] | 0.1 to 1 | 0.01 to 0.1 |
| COCCO[C@H]1CC[C@H](NC(=O)c2ccc3c(n2)-n2cncc2CCO3)CC1 [Compound 70A, N-((1r,4r)-4-(2-Methoxyethoxy)cyclohexyl)-6,7-dihydroimidazo[1,5-d]pyrido[3,2-b][1,4]oxazepine-2-carboxamide] | 0.1 to 1 | 0.01 to 0.1 |
| O=C(N[C@H]1CC[C@H](N2CCC(F)(F)C2)CC1)c1ccc2c(c1)-c1cncn1CCO2 [Compound 71A, N-((1r,4r)-4-(3,3-Difluoropyrrolidin-1-yl)cyclohexyl)-5,6-dihydrobenzo[f]imidazo[1,5-d][1,4]oxazepine-10-carboxamide] | < 0.03 | 0.001 to 0.01 |
| O=C(N[C@H]1CC[C@H](N2CC(F)(F)C2)CC1)c1ccc2c(c1)-c1cncn1CCO2 [Compound 72A, N-((1r,4r)-4-(3,3-Difluoroazetidin-1-yl)cyclohexyl)-5,6-dihydrobenzo[f]imidazo[1,5-d][1,4]oxazepine-10-carboxamide] | < 0.03 | < 0.001 |
| O=C(NC1CCC(F)(F)CC1)c1cc(F)c2c(c1)-c1cncn1CCO2 [Compound 73A, N-(4,4-Difluorocyclohexyl)-8-fluoro-5,6-dihydrobenzo[f]imidazo[1,5-d][1,4]oxazepine-10-carboxamide] | < 0.03 | < 0.001 |
| C[C@@H](N[C@H]1CC[C@H](NC(=O)c2ccc3c(c2)-c2cncn2CCO3)CC1)C(F)(F)F [Compound 74A, N-((1r,4r)-4-(((R)-1,1,1-Trifluoropropan-2-yl)amino)cyclohexyl)-5,6-dihydrobenzo[f]imidazo[1,5-d][1,4]oxazepine-10-carboxamide] | 0.03 to 0.1 | 0.001 to 0.01 |
| O=C(N[C@H]1CC[C@@H](OCCC(F)F)CC1)c1ccc2c(c1)-c1cncn1CCO2 [Compound 77A, N-((1s,4s)-4-(3,3-Difluoropropoxy)cyclohexyl)-5,6-dihydrobenzo[f]imidazo[1,5-d][1,4]oxazepine-10-carboxamide] | < 0.03 | 0.001 to 0.01 |
| O=C(N[C@H]1CC[C@H](OCCC(F)F)CC1)c1ccc2c(c1)-c1cncn1CCO2 [Compound 78A, N-((1r,4r)-4-(3,3-Difluoropropoxy)cyclohexyl)-5,6-dihydrobenzo[f]imidazo[1,5-d][1,4]oxazepine-10-carboxamide] | 0.1 to 1 | > 0.1 |
| O=C(N[C@H]1CC[C@@H](OCCCF)CC1)c1ccc2c(c1)-c1cncn1CCO2 [Compound 79A, N-((1s,4s)-4-(3-Fluoropropoxy)cyclohexyl)-5,6-dihydrobenzo[f]imidazo[1,5-d][1,4]oxazepine-10-carboxamide] | 0.1 to 1 | 0.01 to 0.1 |
| O=C(N[C@H]1CC[C@H](OCCCF)CC1)c1ccc2c(c1)-c1cncn1CCO2 [Compound 80A, N-((1r,4r)-4-(3-Fluoropropoxy)cyclohexyl)-5,6-dihydrobenzo[f]imidazo[1,5-d][1,4]oxazepine-10-carboxamide] | < 0.03 | 0.001 to 0.01 |
| COCCOc1ncc(NC(=O)c2ccc3c(c2)-c2cncn2CCO3)cn1 [Compound 81A, N-(2-(2-Methoxyethoxy)pyrimidin-5-yl)-5,6-dihydrobenzo[f]imidazo[1,5-d][1,4]oxazepine-10-carboxamide] | < 0.03 | 0.001 to 0.01 |
| O=C(N[C@H]1CC[C@H](NC2CCC2(F)F)CC1)c1ccc2c(c1)-c1cncn1CCO2 (stereo partly drawn) [Compound 82A, N-((1r,4r)-4-((2,2-Difluorocyclobutyl)amino)cyclohexyl)-5,6-dihydrobenzo[f]imidazo[1,5-d][1,4]oxazepine-10-carboxamide] | < 0.03 | 0.001 to 0.01 |
| CC(C)(F)CN[C@H]1CC[C@H](NC(=O)c2ccc3c(c2)-c2cncn2CCO3)CC1 [Compound 83A, N-((1r,4r)-4-((2-Fluoro-2-methylpropyl)amino)cyclohexyl)-5,6-dihydrobenzo[f]imidazo[1,5-d][1,4]oxazepine-10-carboxamide] | 0.1 to 1 | 0.01 to 0.1 |
| O=C(NC1CC(F)(F)C1)c1ccc2c(c1)-c1cncn1CCO2 [Compound 84A, N-(3,3-Difluorocyclobutyl)-5,6-dihydrobenzo[f]imidazo[1,5-d][1,4]oxazepine-10-carboxamide] | < 0.03 | 0.001 to 0.01 |
| CS(=O)(=O)CCCO[C@H]1CC[C@H](NC(=O)c2ccc3c(c2)-c2cncn2CCO3)CC1 [Compound 85A, N-((1r,4r)-4-(3-(Methylsulfonyl)propoxy)cyclohexyl)-5,6-dihydrobenzo[f]imidazo[1,5-d][1,4]oxazepine-10-carboxamide] | < 0.03 | 0.001 to 0.01 |
| CS(=O)(=O)CCCO[C@H]1CC[C@@H](NC(=O)c2ccc3c(c2)-c2cncn2CCO3)CC1 [Compound 86A, N-((1s,4s)-4-(3-(Methylsulfonyl)propoxy)cyclohexyl)-5,6-dihydrobenzo[f]imidazo[1,5-d][1,4]oxazepine-10-carboxamide] | 0.1 to 1 | > 0.1 |
| C[C@H](N[C@H]1CC[C@H](NC(=O)c2ccc3c(c2)-c2cncn2CCO3)CC1)C(F)(F)F [Compound 87A, N-((1r,4r)-4-(((S)-1,1,1-Trifluoropropan-2-yl)amino)cyclohexyl)-5,6-dihydrobenzo[f]imidazo[1,5-d][1,4]oxazepine-10-carboxamide] | < 0.03 | < 0.001 |
| CC(C)(N[C@H]1CC[C@H](NC(=O)c2ccc3c(c2)-c2cncn2CCO3)CC1)C(F)(F)F [Compound 88A, N-((1r,4r)-4-((1,1,1-Trifluoro-2-methylpropan-2-yl)amino)cyclohexyl)-5,6-dihydrobenzo[f]imidazo[1,5-d][1,4]oxazepine-10-carboxamide] | < 0.03 | < 0.001 |
